Structures are written as SMILES. Structures can show the parent of a compound that is named as a salt.

The text below walks through data of BindingDB's records for doi:10.3109/14756366.2012.763163 (Atatürk University, 2014).

One assay deals with Carbonic anhydrase 1 (Homo sapiens, UniProt P00915). Kind of assay: Esterase Activity Assay. Conditions: pH 7.4; 25 °C. The method, then: (§1) CA activity was assayed by following the change in absorbance at 348 nm of 4-nitrophenylacetate (NPA) to 4-nitrophenylate ion over a period of 3 min at 25 °C using a spectrophotometer (Shimadzu, UVmini-1240 UV-VIS spectrophotometer) according to the method described by Verpoorte et al.37 The enzymatic reaction contained 1.4mL 0.05M Tris-SO4 buffer (pH 7.4), 1mL 3mM 4-NPA, 0.5mL H2O and 0.1mL enzyme solution (total volume, 3.0 mL). A reference measurement was obtained bypreparing the mixture without the enzyme solution. All measurements were recorded in triplicate.

A further assay has as its target Carbonic anhydrase 2 (Homo sapiens, UniProt P00918). Nature of the assay: Esterase Activity Assay. Conditions: pH 7.4; 25 °C. As for the experimental part:
as §1

Sequence of Carbonic anhydrase 1 (P00915 whole entry): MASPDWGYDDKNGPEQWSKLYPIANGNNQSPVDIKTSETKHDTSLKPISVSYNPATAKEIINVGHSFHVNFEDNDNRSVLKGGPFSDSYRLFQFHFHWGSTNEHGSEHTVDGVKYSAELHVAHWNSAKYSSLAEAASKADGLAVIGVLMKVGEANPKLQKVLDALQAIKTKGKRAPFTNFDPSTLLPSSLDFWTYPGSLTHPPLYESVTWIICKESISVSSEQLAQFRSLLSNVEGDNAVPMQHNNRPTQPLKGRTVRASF

For the compound `COc1ccc(C(NS(C)(=O)=O)c2ccc(OC)c(OC)c2)cc1OC` [N-(bis(3,4-dimethoxyphenyl)methyl)methanesulfonamide (26)], the values for the Ki at Carbonic anhydrase 1 and on Carbonic anhydrase 2 were 25.6 µM and 18.1 µM, respectively.

On to `COc1ccc(C(N)c2cc(OC)c(OC)cc2C)cc1OC` (centres undefined) [(4,5-Dimethoxy-2-methylphenyl)(3,4-dimethoxyphenyl)methanamine hydrochloride (24)], for which the Ki came out at 39.5 µM at Carbonic anhydrase 1 and 47.6 µM on Carbonic anhydrase 2.

As for `COc1ccc(C(NS(C)(=O)=O)c2cc(OC)c(OC)cc2C)cc1OC` (centres undefined) [N-((4,5-dimethoxy-2-methylphenyl)(3,4-dimethoxyphenyl)methyl)methane sulfonamide (27)], the inhibition constant (Ki) at Carbonic anhydrase 1 is 48.6 µM; at Carbonic anhydrase 2 it was 18.9 µM.

Turning to `COc1ccc(C(N)c2cccc(OC)c2OC)cc1OC` (centres undefined) [(2,3-Dimethoxyphenyl)(3,4-dimethoxyphenyl)methanamine hydrochloride (25)], the Ki on Carbonic anhydrase 1 amounted to 66.9 µM; at Carbonic anhydrase 2, 73.3 µM.

For the compound `COc1ccc(C(N)c2ccc(OC)c(OC)c2)c(OC)c1` (centres undefined) [(2,4-Dimethoxyphenyl)(3,4-dimethoxyphenyl)methanamine hydrochloride (23)], the figures for the inhibition constant (Ki) at Carbonic anhydrase 1 and on Carbonic anhydrase 2 were 36 µM and 34.3 µM, respectively.

On to `COc1ccc(C(N)c2ccc(OC)c(OC)c2)cc1OC` [bis(3,4-dimethoxyphenyl)methanamine hydrochloride (22)], for which the Ki on Carbonic anhydrase 1 was 13.7 µM; on Carbonic anhydrase 2, 15.6 µM.

`COc1ccc(C(NS(C)(=O)=O)c2cccc(OC)c2OC)cc1OC` (centres undefined) [N-((2,3-dimethoxyphenyl)(3,4-dimethoxyphenyl)methyl)methanesulfonamide (28)]: the Ki turned out to be 3.68 µM on Carbonic anhydrase 1 and 9.23 µM on Carbonic anhydrase 2.
